We go through five compounds from US8088804B2, “N-hydroxyamide derivatives possessing antibacterial activity” (Pfizer Inc., priority 2005, dated 2012).

For one experiment, the system named is P. aerug. Hypersuc. In words: Susceptibility testing (MIC, CLSI microdilution). It is filed as cell-based, Pseudomonas aeruginosa. As to conditions: 20 h at 35° C., Δ efflux, hypersusceptible strain, unit assumed. (In general: Broth dilution looks for growth in wells or tubes with falling amounts of substance.)
The next experiment deals with P. aerug. (2). In words: Susceptibility testing (MIC, CLSI microdilution). It is filed as cell-based, Pseudomonas aeruginosa. As to conditions: 20 h at 35° C., in µg/mL (unit assumed).
In the next experiment the test system is H. influen. In words: Susceptibility testing (MIC, CLSI microdilution). Type of experiment: cell-based, Haemophilus influenzae. As to conditions: 20 h at 35° C., unit assumed.
Another experiment concerns E. coli (2). In words: Susceptibility testing (MIC, CLSI microdilution). It is filed as cell-based, Escherichia coli. As to conditions: 20 h at 35° C., in µg/mL (unit assumed).
For the next experiment, the system named is E. coli tolC. In words: Susceptibility testing (MIC, CLSI microdilution). It is filed as cell-based, Escherichia coli. To be noted: 20 h at 35° C., unit assumed.
A further experiment relates to K. pneu. In words: Susceptibility testing (MIC, CLSI microdilution). To be noted: 20 h at 35° C., unit assumed. Type of experiment: cell-based, Klebsiella pneumoniae.
The next experiment has as its target P. ae LpxC enzyme (Pseudomonas aeruginosa, UniProt P47205). In words: Enzyme inhibition testing (fluorescamine assay). Type of experiment: biochemical.
Setting [1] is: @0.1 μg/ml, read-out: ENZYME (percent inhibition).

Converted amounts (≈) assume the structure as drawn. Bounds are passed on as bounds.

Sequence of P. ae LpxC enzyme (P47205 whole entry): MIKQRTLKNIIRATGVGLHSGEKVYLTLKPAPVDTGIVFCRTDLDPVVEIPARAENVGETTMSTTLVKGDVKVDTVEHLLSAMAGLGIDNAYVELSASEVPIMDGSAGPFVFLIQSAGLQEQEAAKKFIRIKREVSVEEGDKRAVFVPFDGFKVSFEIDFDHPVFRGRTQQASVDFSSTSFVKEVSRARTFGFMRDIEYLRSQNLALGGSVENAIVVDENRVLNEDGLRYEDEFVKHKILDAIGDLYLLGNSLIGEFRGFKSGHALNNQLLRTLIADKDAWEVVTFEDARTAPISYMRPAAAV

`CCc1ccc(-c2ccc(C(=O)N3CC[C@@H](N)[C@H]3C(=O)NO)cc2)cc1` [Compound 34, (2S,3R)-3-Amino-N-hydroxy-1-(4′-ethylbiphenylcarbonyl)pyrrolidine-2-carboxamide] came in with an MIC P. aerug. Hypersuc against P. aerug. Hypersuc of 64 µg/mL (≈ 181 µM). Also, the “MIC P. aerug. (2)” value against P. aerug. (2) is recorded as 16-32. Moreover, the MIC H. influen. with H. influen. was greater than 64 µg/mL. In addition, the “MIC E. coli (2)” value with E. coli (2) is greater than 64. The compound also had an MIC E. coli tolC with E. coli tolC greater than 64 µg/mL. Further, in the experiment with K. pneu., the MIC K. pneu. is greater than 64 µg/mL. Besides, the inhibition (as a rule, how much of the control response was suppressed) at 0.5 µg/mL on P. ae LpxC enzyme (@0.5 μg/ml, read-out: ENZYME (percent inhibition)) turned out to be 93%.
On to `O=C(NO)[C@H]1N(C(=O)c2ccc(Oc3ccccc3)cc2)CCS1(=O)=O` [Compound 35, (S)-N-Hydroxy-3-(4-phenoxybenzoyl)thiazolidinesulfone-2-carboxamide], for which the MIC P. aerug. Hypersuc against P. aerug. Hypersuc is greater than 64 µg/mL. For the same compound, the “MIC P. aerug. (2)” value with P. aerug. (2) is greater than 64. Besides, the MIC H. influen. against H. influen. is greater than 64 µg/mL. In addition, the “MIC E. coli (2)” value in the experiment with E. coli (2) is reported as greater than 64. In addition, the MIC E. coli tolC against E. coli tolC came out at 0.125 µg/mL (≈ 0.332 µM). Moreover, the MIC K. pneu. against K. pneu. was greater than 64 µg/mL. Besides, on P. ae LpxC enzyme (setting [1]), the inhibition at 0.1 µg/mL came out at 21%.
Take `O=C(NO)[C@H]1N(C(=O)c2ccc(-c3ccc(F)cc3)cc2)CCS1(=O)=O` [Compound 37, (S)-3-(4′-Fluorobiphenylcarbonyl)-N-hydroxythiazolidinesulfone-2-carboxamide]: the MIC P. aerug. Hypersuc in the experiment on P. aerug. Hypersuc amounted to 2 µg/mL (≈ 5.29 µM). The “MIC P. aerug. (2)” value against P. aerug. (2) is recorded as 4-32. The compound also returned an MIC H. influen. in the experiment on H. influen. greater than 64 µg/mL. Besides, in the experiment on E. coli (2), the “MIC E. coli (2)” value is reported as greater than 64. This compound had an MIC E. coli tolC in the experiment on E. coli tolC of no more than 0.06 µg/mL. Moreover, the MIC K. pneu. in the experiment with K. pneu. was greater than 64 µg/mL. Moreover, the “ENZYME (percent inhibition)” value on P. ae LpxC enzyme (@0.1 μg/ml) is 42%. Moreover, the inhibition at 0.1 µg/mL at P. ae LpxC enzyme (setting [1]) was 32%.
`O=C(NO)[C@H]1N(C(=O)c2ccc(-c3ccc(C(F)(F)F)cc3)cc2)CCS1(=O)=O` [Compound 38, (S)-3-(4′-(Trifluoromethyl)biphenylcarbonyl)-N-hydroxythiazolidinesulfone-2-carboxamide] came in with an MIC P. aerug. Hypersuc in the experiment with P. aerug. Hypersuc of 8 µg/mL (≈ 18.7 µM). In addition, in the experiment with P. aerug. (2), the “MIC P. aerug. (2)” value turned out to be 32. The same compound gave an MIC H. influen. in the experiment on H. influen. greater than 64 µg/mL. For the same compound, the “MIC E. coli (2)” value with E. coli (2) is reported as greater than 64. The compound also showed an MIC E. coli tolC with E. coli tolC of no more than 0.06 µg/mL. Also, in the experiment on K. pneu., the MIC K. pneu. is greater than 64 µg/mL. Further, the inhibition at 0.1 µg/mL on P. ae LpxC enzyme (setting [1]) was 30%.
Compound `COc1ccc(C(=O)N2CC[C@@H](O)[C@H]2C(=O)NO)cc1SC(F)(F)F` [Compound 40, (2S,3R)-3-Hydroxy-N-hydroxy-1-(4-methoxy-3-trifluoromethylsulfanyl-benzoyl)-pyrrolidine-2-carboxamide] yielded an MIC P. aerug. Hypersuc in the experiment with P. aerug. Hypersuc greater than 64 µg/mL. The “MIC P. aerug. (2)” value in the experiment on P. aerug. (2) is greater than 64. In the experiment with H. influen., this compound registered an MIC H. influen. greater than 64 µg/mL. In the experiment on E. coli (2), the “MIC E. coli (2)” value was greater than 64. Further, the MIC E. coli tolC against E. coli tolC is 32 µg/mL (≈ 84.1 µM). For the same compound, in the experiment on K. pneu., the MIC K. pneu. is 64 µg/mL (≈ 168 µM). Besides, the inhibition at 10 µg/mL on P. ae LpxC enzyme (@10 μg/ml, read-out: ENZYME (percent inhibition)) turned out to be 52%.
